According to patent US20220378907A1, “METHODS FOR TREATING DISEASES” (CHILDREN'S HOSPITAL MEDICAL CENTER, priority 2019, published 2022):

Tests used:
Assay type in all cases: cell-based, mouse
[1] = tested on: IL-1β production by BMDCs co-cultured with TH0 cells; test: Co-culture of BMDCs and effector CD4+ T cells (CD3 Ab), secreted IL-1β by ELISA or immunoblot; settings: WT BMDCs + WT TH0 cells, IETD 10 μM, 18 h
Method: Cell culture treated plates were coated with αCD3 (5 μg mL^−1) and αCD28 (5 μg mL^−1) for 3-4 h at 37° C. CD4^+CD62L^hi naïve CD4^+ T cells were isolated from splenocytes using a Mojosort naïve CD4 T cell isolation kit according to manufacturer's protocol. Purified naïve T cells were plated in antibody-coated plates with appropriate polarizing conditions for 5 days. T cell were cultured in complete RPMI supplemented with 10% FCS. Cytokine cocktails for in vitro polarization: Thl — IL-12 (10 ng mL^−1, peprotech), IL-2 (50 U mL^−1, peprotech), αIL-4 (10 μg mL^−1, Biolegend); Th17-IL-6 (20 ng mL^−1, peprotech), hTGFβ (5 ng mL^−1, peprotech), αIL-4 (10 μg mL^−1, Biolegend), αIFNγ (10 μg mL^−1, Biolegend), IL-23 (20 ng mL^−1, Biolegend) and IL-1β (20 ng mL^−1, peprotech), Th2− IL-4 (4 ng mL^−1, peprotech), IL-2 (50 U mL^−1, Biolegend), and αIFNγ (10 μg mL^−1, Biolegend), Th0− IL-2 (50 U mL^−1). For co-culture experiments T cells were rested in 10% RPMI supplemented with IL-2 (10 U mL^−1) for 36 hrs before co-culture.
Mouse progenitors were isolated from bone marrow (femurs and tibias). […]
Cells were lysed in 1× RIPA Buffer and protein was quantified using Pierce™ BCA Protein Assay Kit. […] Western blot was develop using SuperSignal™ West Pico PLUS Chemiluminescent Substrate (Thermo Fisher) and ECL signal was recorded on X-Ray Films using a developer (Kodak).

pro-IL-1β in BMDCs = test: Co-culture of BMDCs and effector CD4+ T cells, pro-IL-1β by immunoblot or flow cytometry; settings: WT BMDCs + WT TH0 cells, CD3 Ab, IETD 10 μM, 18 h
Method: 1 million DCs were cultured with 4 million T cells in 12 well plate. DC-T cell interaction was triggered by adding either αCD3ε (αCD3, 200 ng mL^−1) or OVA323-339 as described in the legends. In experiments measuring secreted IL-1β, IL-1R antagonist (50 ng mL^−1) was added 1 hr prior to DC stimulation to block IL-1β consumption. Co-cultures were also pretreated with neutralizing antibodies and inhibitor wherever described. Co-culture experiments were performed in complete RPMI supplemented with 10% FCS. For Western blot analysis of the culture supernatant cells were cultured in 1% FCS containing complete RPMI.
Cells were lysed in 1× RIPA Buffer and protein was quantified using Pierce™ BCA Protein Assay Kit. Cell lysates where boiled in 1× Laemmli buffer at 95° C. for 10 mins. Cell lysates were separated by SDS-PAGE and transferred onto PVDF membranes. Blots were incubated with anti-IL1β [1:1000] (R&D AF-401-SP), anti-caspase8 [1:1000] […] Western blot was develop using SuperSignal™ West Pico PLUS Chemiluminescent Substrate (Thermo Fisher) and ECL signal was recorded on X-Ray Films using a developer (Kodak).
Cells were stained with relevant antibodies for 30 min on ice and washed. […] The stained cells were analyzed with BDLSRII or Novocyte (ACEA biosciences). For cytokine receptor staining, control refers to fluorescence minus one control. Data were analyzed with FlowJo 10 Software.

WT BMDCs = test: Stimulation of WT BMDCs with recombinant TNF, intracellular pro-IL-1β by flow cytometry; settings: recombinant TNFα 20 ng/mL, 6 h
Method: Mouse progenitors were isolated from bone marrow (femurs and tibias). Following RBC lysis, cells were plated at 0.75×10^6 mL^−1 in BMDC media (5% FCS containing complete RPMI+1% rGMCSF (Biolegend, 100 ng mL^−1). Media was replaced on day 2 and day 4 and cells were harvested for experiments on day 5 by gently flushing each well. For sorting of BMDC subpopulations, total BMDC cells were stained with fluorescent antibodies and FACS sorted as shown (FIG. 5g) For retroviral transduction, following RBC lysis cells were plated at 10×10^6 mL^−1 in 2 mL of retroviral supernatant containing […] polybrene. Cells were spinfected at 2500 rpm, 32° C., for 90 minutes, then 3 mL of BMDC media was added to each well and cells were incubated overnight. The next morning, ˜70% of the media was removed from the wells and spinfection was repeated with fresh retroviral supernatant. On day 5 cells were harvested for experiments.
Cells were stained with relevant antibodies for 30 min on ice and washed. For intracellular staining, Foxp3 staining buffer set (eBioscience; 00-5523-00) was used according to manufacturer's protocol. The stained cells were analyzed with BDLSRII or Novocyte (ACEA biosciences). For cytokine receptor staining, control refers to fluorescence minus one control. Data were analyzed with FlowJo 10 Software.

IETD
mature IL-1β (p17) in the supernatant (immunoblot, FIG. 4d) [1]: loss of mature IL-1β
production of pro-IL-1β in BMDCs (immunoblot, FIG. 4d) (pro-IL-1β in BMDCs): did not affect

B1: recombinant TNF: rTNFα (Peprotech; 315-01Am, 20 ng/mL) (protein)
chain: LRSSSQNSSDKPVAHVVANHQVEEQLEWLSQRANALLANGMDLKDNQLVVPADGLYLVYSQVLFKGQGCPDYVLLTHTVSRFAISYQEKVNLLSAVKSPCPKDTPEGAELKPWYEPIYLGGVFQLEKGDQLSAEVNLPKYLDFAESGQVYFGVIAL
synthesis of pro-IL-1β in wild-type BMDCs (FIG. 2k) (WT BMDCs): drove the synthesis
